{"source": "PubChem BioAssay (NCI)", "assay_in_all_cases": "NCI anticancer screen, dose series, 48 h", "key": {"[1]": {"tested_on": "RXF 393 renal"}, "[2]": {"tested_on": "NCI-H522 lung"}, "[3]": {"tested_on": "HS 578T breast"}, "[4]": {"tested_on": "SK-OV-3 ovarian"}, "[5]": {"tested_on": "NCI-H226 lung"}, "[6]": {"tested_on": "HCC-2998 colon"}, "[7]": {"tested_on": "SR leukemia"}, "[8]": {"tested_on": "U251 CNS"}, "[9]": {"tested_on": "A549 NSCLC"}, "[10]": {"tested_on": "HL-60(TB) leukemia"}, "[11]": {"tested_on": "A498 renal"}, "[12]": {"tested_on": "COLO 205 colon"}, "[13]": {"tested_on": "HOP-62 NSCLC"}, "[14]": {"tested_on": "BT-549 breast"}, "[15]": {"tested_on": "LOX IMVI melanoma"}, "[16]": {"tested_on": "MCF7 breast"}, "[17]": {"tested_on": "SK-MEL-2 melanoma"}, "[18]": {"tested_on": "PC-3 prostate"}, "[19]": {"tested_on": "ACHN renal"}, "[20]": {"tested_on": "MDA-MB-231 breast"}, "[21]": {"tested_on": "NCI-H23 lung"}, "[22]": {"tested_on": "SF-268 CNS"}, "[23]": {"tested_on": "786-0 renal"}, "[24]": {"tested_on": "IGROV1 ovarian"}, "[25]": {"tested_on": "SNB-19 CNS"}, "[26]": {"tested_on": "KM12 colon"}, "[27]": {"tested_on": "MOLT-4 leukemia"}, "[28]": {"tested_on": "MDA-MB-435"}, "[29]": {"tested_on": "SK-MEL-28 melanoma"}}, "note": "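Test compounds were applied to cells in 96-well plates for 48 hours at 5 doses. Abbreviation: GI50, concentration required for 50% inhibition of growth. TGI: concentration producing complete growth inhibition.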"}
{"smiles": "CS(=O)(=O)Nc1ccc(Nc2c3ccccc3nc3cc(N)ccc23)cc1", "values": [{"measurement": "TGI", "setting": "[1]", "result": 34.9, "unit": "µM"}, {"measurement": "GI50", "setting": "[2]", "result": 0.164, "unit": "µM"}, {"measurement": "TGI", "setting": "[2]", "result": 2.69, "unit": "µM"}, {"measurement": "GI50", "setting": "[3]", "result": 1.72, "unit": "µM"}, {"measurement": "TGI", "setting": "[3]", "result": 13.4, "unit": "µM"}, {"measurement": "GI50", "setting": "[4]", "result": 1.31, "unit": "µM"}, {"measurement": "TGI", "setting": "[4]", "result": 27.7, "unit": "µM"}, {"measurement": "GI50", "setting": "[5]", "result": 0.246, "unit": "µM"}, {"measurement": "TGI", "setting": "[5]", "result": 3.89, "unit": "µM"}, {"measurement": "GI50", "setting": "[6]", "result": 5.22, "unit": "µM"}, {"measurement": "TGI", "setting": "[6]", "result": 24.4, "unit": "µM"}, {"measurement": "GI50", "setting": "[7]", "result": 0.035, "unit": "µM"}, {"measurement": "TGI", "setting": "[7]", "result": 1.19, "unit": "µM"}, {"measurement": "GI50", "setting": "[8]", "result": 0.0794, "unit": "µM"}, {"measurement": "TGI", "setting": "[8]", "result": 1.3, "unit": "µM"}, {"measurement": "GI50", "setting": "[9]", "result": 0.062, "unit": "µM"}, {"measurement": "TGI", "setting": "[9]", "result": 15.6, "unit": "µM"}, {"measurement": "GI50", "setting": "[10]", "result": 0.769, "unit": "µM"}, {"measurement": "TGI", "setting": "[10]", "result": 8.51, "unit": "µM"}, {"measurement": "GI50", "setting": "[11]", "result": 1.32, "unit": "µM"}, {"measurement": "TGI", "setting": "[11]", "result": 17.4, "unit": "µM"}, {"measurement": "GI50", "setting": "[12]", "result": 2.51, "unit": "µM"}, {"measurement": "TGI", "setting": "[12]", "result": 20, "unit": "µM"}, {"measurement": "GI50", "setting": "[13]", "result": 0.26, "unit": "µM"}, {"measurement": "TGI", "setting": "[13]", "result": 10.2, "unit": "µM"}, {"measurement": "GI50", "setting": "[14]", "result": 1.35, "unit": "µM"}, {"measurement": "TGI", "setting": "[14]", "result": 8.41, "unit": "µM"}, {"measurement": "GI50", "setting": "[15]", "result": 0.418, "unit": "µM"}, {"measurement": "TGI", "setting": "[15]", "result": 15.2, "unit": "µM"}, {"measurement": "GI50", "setting": "[16]", "result": 0.052, "unit": "µM"}, {"measurement": "TGI", "setting": "[16]", "result": 9.16, "unit": "µM"}, {"measurement": "GI50", "setting": "[17]", "result": 2.26, "unit": "µM"}, {"measurement": "TGI", "setting": "[17]", "result": 7.04, "unit": "µM"}, {"measurement": "GI50", "setting": "[18]", "result": 1.31, "unit": "µM"}, {"measurement": "TGI", "setting": "[18]", "result": 27.1, "unit": "µM"}, {"measurement": "GI50", "setting": "[19]", "result": 0.231, "unit": "µM"}, {"measurement": "TGI", "setting": "[19]", "result": 17.8, "unit": "µM"}, {"measurement": "GI50", "setting": "[20]", "result": 12.4, "unit": "µM"}, {"measurement": "TGI", "setting": "[20]", "result": 34, "unit": "µM"}, {"measurement": "GI50", "setting": "[21]", "result": 0.436, "unit": "µM"}, {"measurement": "TGI", "setting": "[21]", "result": 12.8, "unit": "µM"}, {"measurement": "GI50", "setting": "[22]", "result": 0.0222, "unit": "µM"}, {"measurement": "TGI", "setting": "[22]", "result": 5.69, "unit": "µM"}, {"measurement": "GI50", "setting": "[23]", "result": 0.277, "unit": "µM"}, {"measurement": "TGI", "setting": "[23]", "result": 4.66, "unit": "µM"}, {"measurement": "GI50", "setting": "[24]", "result": 5.38, "unit": "µM"}, {"measurement": "TGI", "setting": "[24]", "result": "> 73.6", "unit": "µM"}, {"measurement": "GI50", "setting": "[25]", "result": 0.241, "unit": "µM"}, {"measurement": "TGI", "setting": "[25]", "result": 15.4, "unit": "µM"}, {"measurement": "GI50", "setting": "[26]", "result": 0.499, "unit": "µM"}, {"measurement": "TGI", "setting": "[26]", "result": 7.14, "unit": "µM"}, {"measurement": "GI50", "setting": "[27]", "result": 0.0194, "unit": "µM"}, {"measurement": "TGI", "setting": "[27]", "result": 0.987, "unit": "µM"}, {"measurement": "GI50", "setting": "[28]", "result": 5.79, "unit": "µM"}, {"measurement": "TGI", "setting": "[28]", "result": 21.6, "unit": "µM"}, {"measurement": "GI50", "setting": "[29]", "result": 1.9, "unit": "µM"}, {"measurement": "TGI", "setting": "[29]", "result": 16.2, "unit": "µM"}]}
